Results taken from US20220040129A1, “TREATMENT OF HYPERAMMONEMIA IN PATIENTS WITH RENAL INSUFFICIENCY” (RECORDATI S.p.A., priority 2019, published 2022).
Where two headings read alike, the source gives them in different places.

Tests used:
plasma NH3 [1] = settings: cited from earlier work
CYP2C9 = CYP2C9 (Homo sapiens, UniProt P11712); experiment: In vitro CYP inhibition; assay type: in vitro ADME
plasma NH3 [2] = experiment: Retrospective review of PA, MMA, IVA decompensation episodes: plasma NH3 and clinical findings; assay type: in vivo, human
Method: […] […] Plasma ammonia (NH3) levels were measured up to a maximum of 15 days from the start of treatment. […] Concomitant standard of care therapies included carnitine, arginine, hydroxocobalamin, biotin, thiamine, riboflavin and glucose.

clinical = settings: human, in vivo; for CL renal / clearance / half-life / Vd: both sexes; for clearance: Cl
Method: The levels of CGA in plasma and urine were analysed using a fully validated method, which included LC-MS/MS analysis. The PK data were analysed based on a non-compartmental model. A model-based approach was implemented for the characterization of the PK properties of the IV formulation in order to estimate the level of PK exposure after different doses administered with different duration of infusion. The model outcomes provided rationales for supporting decision-making through the dose escalation process. The PK parameters were determined using SAS (version 9.3), and modelling of the PK data was performed using NONMEM (version 7.3, ICON Solutions). PART A: Mono-Centre, Randomized, Successive Groups, Double-Blind, Placebo-Controlled Study in Healthy Male and Female Subjects
Part C was a randomized, double-blind, placebo-controlled study. It was conducted in five successive cohorts of 8 healthy male or female subjects each, for a total of 40 subjects. For each of the five cohorts, 6 subjects were administered CGA and 2 subjects received placebo. The study medication was administered IV, first as a loading dose and then as a maintenance dose. The dosage regimen was determined based both on the results of Part A and PK modelling.
For the first three cohorts, three ascending doses of the study medication were administered IV as loading doses of 2.0, 3.0, and 3.6 mg/kg for 20 minutes, respectively, followed by maintenance doses of 2.5, 3.75 and 4.5 mg/kg/h given by IV infusion over a period of […]. For the fourth cohort, a dose of the IV formulation of CGA determined as being well tolerated was administered as a loading dose by IV infusion over 20 minutes, followed by a maintenance dose administered by IV infusion over a period of up to 12 hours. The 5th cohort received the study medication at the same dose and under the same conditions as the 4th cohort, except for the period during which the maintenance dose was administered, which lasted up to 24 hours.
Blood sample for PK measurements were collected at 18 timepoints for the first three cohorts, and 20 timepoints for the 4th and 5th cohorts. These included a sample preceding the administration of the study medication, and the period from 20 minutes to 48 hours following the initiation of the IV infusion. Urine was also collected for PK measurements at the following intervals relative to the time of initiation of the IV infusion: 0-6, 6-12, 12-24, 24-36, and 36-48 hours. […]

[3] = in most cases, carglumic acid alone, 13 episodes
[4] = second block headed All (N = 5), First 24 hrs
[5] = second block headed All (N = 5), First 48 hrs

CYP2C9, sequence (P11712 whole entry): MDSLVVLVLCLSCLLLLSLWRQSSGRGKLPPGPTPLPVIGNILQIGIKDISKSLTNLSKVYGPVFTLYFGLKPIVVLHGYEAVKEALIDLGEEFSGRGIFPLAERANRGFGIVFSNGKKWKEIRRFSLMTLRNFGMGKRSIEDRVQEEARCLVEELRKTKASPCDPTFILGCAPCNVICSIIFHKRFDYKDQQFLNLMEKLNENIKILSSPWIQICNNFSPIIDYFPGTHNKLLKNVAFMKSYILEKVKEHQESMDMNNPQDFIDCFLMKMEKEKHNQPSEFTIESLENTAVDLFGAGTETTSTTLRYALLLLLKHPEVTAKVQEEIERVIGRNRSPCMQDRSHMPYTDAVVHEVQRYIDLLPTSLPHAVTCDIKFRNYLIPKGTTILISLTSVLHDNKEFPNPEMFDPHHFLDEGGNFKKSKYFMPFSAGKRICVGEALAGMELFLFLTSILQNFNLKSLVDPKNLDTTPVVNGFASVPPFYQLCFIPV

## NC(=O)N[C@@H](CCC(=O)O)C(=O)O [carglumic acid, N-carbamoyl-L-glutamic acid]
Plasma NH3 [1]; All episodes, First 24 hrs
  Plasma NH3 level, Mean (SD): 94.6 (47.6) micromol/L
  Plasma NH3 level, Median: 100.0 µmol/L
  Plasma NH3 level, Min-Max: 43.3 to 187.9 µmol/L
  Plasma NH3 level, Q1-Q3: 50.0 to 110.5 µmol/L
Plasma NH3 [1]; All episodes, First 48 hrs
  Plasma NH3 level, Mean (SD): 80.5 (43.4) micromol/L
  Plasma NH3 level, Median: 66.0 µmol/L
  Plasma NH3 level, Min-Max: 32.0 to 187.9 µmol/L
  Plasma NH3 level, Q1-Q3: 50.0 to 100.0 µmol/L
Plasma NH3 [1]; Non-Neonates, First 24 hrs
  Plasma NH3 level, Mean (SD): 106.1 (56.6) micromol/L
  Plasma NH3 level, Median: 100.0 µmol/L
  Plasma NH3 level, Min-Max: 47.6 to 187.9 µmol/L
  Plasma NH3 level, Q1-Q3: 50.0 to 170.0 µmol/L
Plasma NH3 [1]; Non-Neonates, First 48 hrs
  Plasma NH3 level, Mean (SD): 81.8 (52.2) micromol/L
  Plasma NH3 level, Median: 58.0 µmol/L
  Plasma NH3 level, Min-Max: 32.0 to 187.9 µmol/L
  Plasma NH3 level, Q1-Q3: 48.8 to 110.5 µmol/L
Plasma NH3 [1]; [3]
  Time within which a marked reduction in plasma NH3 levels was observed: ≤ 6 h
  Time within which plasma NH3 values were normalized: ≤ 30 h
Plasma NH3 [1]; [4]
  Plasma NH3 level, Mean (SD): 78.5 (29.6) micromol/L
  Plasma NH3 level, Median: 100.0 µmol/L
  Plasma NH3 level, Min-Max: 42.3 to 100.0 µmol/L
  Plasma NH3 level, Q1-Q3: 50.0 to 100.0 µmol/L
Plasma NH3 [1]; [5]
  Plasma NH3 level, Mean (SD): 78.5 (29.6) micromol/L
  Plasma NH3 level, Median: 100.0 µmol/L
  Plasma NH3 level, Min-Max: 42.3 to 100.0 µmol/L
  Plasma NH3 level, Q1-Q3: 50.0 to 100.0 µmol/L
CYP2C9
  Inhibition of CYP2C9: not an inhibitor
Plasma NH3 [2]; 36-48 hours from treatment initiation
  Mean reduction in plasma NH3 levels from baseline: −63%
Plasma NH3 [2]; 51 patients (27 PA, 24 MMA)
  Differences in plasma ammonia level reduction between pediatric and adult patients with PA or MMA: no apparent differences
Plasma NH3 [2]; clinical, laboratory, neurological, psychiatric, respiratory findings and feeding difficulties
  Median change in the number of clinical findings from baseline to endpoint: −4.0
Plasma NH3 [2]; human, in vivo
  Normalization of the neurological findings: 50 % of episodes
clinical; iv, Average renal clearance
  CL renal: 4.83 mL/min/kg
clinical; iv, Mean
  clearance: 5.33 mL/min/kg
  half-life: 28.4 h
  Vd: 13 L/kg
clinical; iv, Median
  clearance: 5.27 mL/min/kg
  half-life: 28.5 h
  Vd: 12.8 L/kg
clinical; iv, Renal Clearance, Mean
  CL renal: 4.83 mL/min/kg
clinical; iv, Renal Clearance, Median
  CL renal: 4.98 mL/min/kg
clinical; both, iv
  Ae (% of the dose excreted), Max: 111.412%
  Ae (% of the dose excreted), Mean: 84.478%
  Ae (% of the dose excreted), Median: 86.924%
  Ae (% of the dose excreted), Min: 38.756%
  Cl, Max: 7.3 mL/min/kg
  Cl, Min: 3.2 mL/min/kg
  Half-life, Max: 39.987 h
  Half-life, Min: 13.598 h
  Renal Clearance, Max: 8.5 mL/min/kg
  Renal Clearance, Min: 1.93 mL/min/kg
  Vd, Max: 19.689 L/kg
  Vd, Min: 3.897 L/kg
clinical
  Dose dependence of AUCinf, AUClast and Cmax: increased linearly
